This note sets out measurements from PubChem BioAssay (NCI).

Common to all, as to assay: inhibition of tumour cell growth, NCI panel, 48 h
Experiment [1] concerns BT-549 breast.
Experiment [2] deals with U251 CNS.
For experiment [3], the system named is HL-60(TB) leukemia.
Experiment [4] has as its system HOP-92 NSCLC.
The test system of experiment [5] is SR leukemia.
In experiment [6] the test system is MDA-N.
Experiment [7] deals with NCI-H23 lung.
For experiment [8], the system named is SK-MEL-5 melanoma.
For experiment [9], the system named is SW-620 colon.
The test system of experiment [10] is MCF7 breast.

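A five-concentration, 48-hour dose response in 96-well plates underlies each endpoint, interpolated linearly between surrounding concentrations. TGI marks complete inhibition of growth.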

Consider `CC(=O)NC1C(OCc2ccccc2)OC(CO)C(O)C1OCC(=O)N[C@@H](C)C(=O)N[C@H](CCC(=O)NCCNc1ccc([N+](=O)[O-])c2[nH]c3ccccc3c(=O)c12)C(N)=O` (stereo partly drawn), for which the TGI is 46 µM in [1]; over 100 µM in experiment [2]; over 100 µM in [3]; 80.8 µM in experiment [4]; over 100 µM in experiment [5]; over 100 µM in experiment [6]. The TGI is 90 µM in experiment [7], over 100 µM in experiment [8] and over 100 µM in experiment [9].
Take `C/C(O)=C(\C=NC(=S)c1ccncc1)C(=O)Nc1ccccc1C`: the TGI in [1], in [2], in [3], in experiment [4], in [10] and in [6] was over 100 µM each time. Moreover, the TGI in [7], in experiment [8] and in experiment [9] was over 100 µM each time.
Consider `C#CC(O)/C=C/C(O)CCCC(O)CC#CC(O)C#CCCCCC(O)/C=C/CCCC(O)/C=C/CCCCCCCCCCCCCC(O)C(O)C#CC(=O)O` (stereo not drawn), for which the TGI in experiment [2], in [3], in experiment [4], in [5], in experiment [10] and in [6] was over 25 µM throughout. Also, the TGI in experiment [7] and in experiment [8] was over 25 µM each time.
`COc1ccc2c(c1OC)C(=O)O[C@@H]2[C@H]1c2c(cc3c(c2OC)OCO3)CCN1C`: the TGI in experiment [1], in [2], in [4], in experiment [5], in [10] and in experiment [6] was over 100 µM in each case. Further, the TGI in experiment [7], in experiment [8] and in experiment [9] was over 100 µM each time.
Take `O=P1(Cc2ccccc2)c2ccccc2-c2ccccc21`: the TGI in experiment [1] is 21.3 µM; in [2] it was 70.5 µM; in [4], 6.99 µM; in experiment [5], 26.9 µM; in [10] it was over 39.3 µM; in experiment [6] it was 10.9 µM. Also, the TGI in experiment [7] worked out at 22.1 µM; in [8], 4.18 µM; in [9], 35 µM.
In the case of `O=C1C(Cl)=C(NCCF)C(=O)c2ncccc21`, the TGI in experiment [1] was 2.99 µM; in experiment [2], 2.8 µM; in experiment [3], over 10 µM; in [5], over 10 µM; in [10], 3.54 µM; in [6], 0.392 µM. Moreover, the figures for the TGI in experiment [7], in experiment [8] and in experiment [9] were 3.51 µM, 2.56 µM and 3.35 µM, respectively.
Take `Cc1cc(N(CCC#N)CCC#N)ccc1/C(N=Nc1ccc([N+](=O)[O-])cc1)=N\NC(=O)c1ccccc1`: the TGI in experiment [1], in [2], in experiment [3], in [5], in [10] and in experiment [6] was over 100 µM in each case. In addition, the TGI in experiment [7] and in experiment [8] was over 100 µM in each case.
As for `COCOc1cc(OC)ccc1C/C(=N/O)C(=O)OC`, the TGI in experiment [1], in [2], in experiment [3], in experiment [10], in experiment [6] and in [7] was over 100 µM each time. Besides, the TGI in experiment [8] and in experiment [9] was over 100 µM throughout.
As to `O=c1[nH]c(=O)n([C@@H]2O[C@H](CO)[C@@H](O)[C@@H]2F)cc1I`, the TGI in experiment [1], in [2], in experiment [3], in experiment [4], in experiment [10] and in [6] was over 100 µM in each case. Further, the TGI in [7], in [8] and in [9] was over 100 µM each time.
As for `CCOC(=O)/C=C(/C(=O)OCC)n1ccc(=O)n(Cc2cnnn2CCCCOC(C)=O)c1=O`, the TGI in experiment [1] is over 100 µM; in [2], over 100 µM; in experiment [4] it was 45.7 µM; in [5], over 100 µM; in [10], over 100 µM; in [6], over 100 µM. The TGI in experiment [7] is over 100 µM; in experiment [8] it was over 100 µM; in [9], 43.2 µM.
Take `CCOC1CCN(C(=O)c2ccccc2)O1` (stereo not drawn): the TGI in experiment [1], in [3], in experiment [5], in [10], in experiment [6] and in experiment [7] was over 10 µM each time. Besides, the TGI in [8] and in experiment [9] was over 10 µM in each case.
As to `CNC(=S)/C(C#N)=C(\N)N1CCCC1`, the TGI in experiment [2], in experiment [3], in experiment [5], in [6], in experiment [7] and in experiment [8] was over 100 µM throughout. In experiment [9], this compound displayed a TGI of over 100 µM.
As to `C[C@H]1O[C@@H](C(C)(C)C)OC(=O)[C@@H]1C(OC(=O)c1ccccc1)c1cccc2ccccc12` (stereo partly drawn), the TGI in experiment [1], in [2], in experiment [5], in experiment [10], in experiment [6] and in experiment [7] was over 100 µM each time. Besides, the TGI in experiment [8] and in experiment [9] was over 100 µM throughout.
For `[N-]=[N+]=Nc1ccc2c(c1)Sc1ccccc1N2CCCCN1CCN(C(=O)CCNC(=O)Cc2ccc(C(=O)c3ccccc3)cc2)CC1`, the TGI in experiment [1] was 10.6 µM; in experiment [2] it was over 24.6 µM; in experiment [3], 5.57 µM; in experiment [4], over 29.2 µM; in experiment [10], 5.78 µM; in experiment [6] it was 14.1 µM. For the same compound, the figures for the TGI in experiment [7], in experiment [8] and in experiment [9] were over 44 µM, 4.39 µM and over 39.3 µM, respectively.
Consider `CN(C)c1ccc(/C=C(\NC(=O)c2ccccc2)C(=O)NC(Cc2c[nH]c3ccccc23)C(=O)O)cc1` (stereo not drawn), for which the TGI in [1], in experiment [2], in experiment [3], in [4], in experiment [10] and in experiment [6] was over 100 µM in each case. Besides, the TGI in experiment [7], in experiment [8] and in experiment [9] was over 100 µM throughout.
For `COc1cc(OC)c(OC)cc1/C=C/c1cc[n+](C)c2ccccc12`, the TGI in experiment [2] is over 100 µM; in [3] it was 33 µM; in experiment [4], 76.2 µM; in experiment [5] it was over 100 µM; in [10], over 100 µM; in [6], over 100 µM. Moreover, the TGI is 97.4 µM in experiment [7], 26.4 µM in experiment [8] and over 100 µM in [9].
With `O=C1NC(=Nc2ccccc2)C(=Nc2ccccc2)N1c1ccccc1`, the TGI in experiment [2] turned out to be 28.9 µM; in [3], 52.8 µM; in [4], 30 µM; in experiment [5], 51.1 µM; in experiment [6] it was 25.6 µM; in experiment [7], 30.8 µM. Also, the TGI is 29.7 µM in experiment [8] and 30 µM in [9].
`O=C(C1OC1c1cccc([N+](=O)[O-])c1)C12CC3CC(CC(C3)C1)C2` (stereo not drawn): the TGI in [1] came to 12.6 µM; in [2], 9.64 µM; in [3] it was 15.8 µM; in experiment [4] it was 25.3 µM; in [10] it was 12.8 µM; in experiment [6] it was 11.9 µM. The TGI in [7] was found to be 17.7 µM; in experiment [8] it was 22.9 µM; in experiment [9], 8.44 µM.
On to `O=C(NC1(C(=O)O)CCCC1)c1ccccc1`, for which the TGI in experiment [1], in [2], in experiment [3], in [4], in experiment [10] and in experiment [6] was over 100 µM in each case. Also, the TGI in experiment [7], in experiment [8] and in [9] was over 100 µM each time.
For `C=CCCC(=O)C(=[N+]=[N-])C(=O)CCC(=O)c1ccccc1`, the TGI in [1], in [2], in [4], in experiment [5], in experiment [10] and in experiment [6] was over 10 µM each time. The TGI in experiment [7], in [8] and in experiment [9] was over 10 µM each time.
Regarding `C=CCN(CCN(CC=C)S(=O)(=O)c1ccc(C)cc1)S(=O)(=O)c1ccc(C)cc1`, the TGI in experiment [2], in [4], in experiment [5], in experiment [10], in experiment [6] and in experiment [7] was over 100 µM each time. Moreover, the TGI in experiment [8] and in [9] was over 100 µM throughout.
Regarding `Cc1cn(C2OC(CO)C(O)C2F)c(=O)[nH]c1=O` (stereo not drawn), the TGI in [1], in [2], in experiment [3], in [4], in experiment [10] and in experiment [6] was over 100 µM each time. For the same compound, the TGI in [7], in experiment [8] and in [9] was over 100 µM in each case.
Take `CN(C)N=Nc1ccc2[nH]c(=O)[nH]c2c1`: the TGI is over 100 µM in experiment [1]; over 100 µM in [2]; 83.7 µM in experiment [3]; over 100 µM in [10]; over 100 µM in [6]; over 100 µM in experiment [7]. The TGI in [8] and in experiment [9] was over 100 µM in each case.
Take `CC(=O)O[C@H]1C(=O)[C@@]2(C)[C@H]([C@H](OC(=O)c3ccccc3)[C@]3(O)C[C@H](OC(=O)[C@H](O)[C@@H](NC(=O)c4ccc(N(C)C)cc4)c4ccccc4)C(C)=C1C3(C)C)[C@]1(OC(C)=O)CO[C@@H]1C[C@@H]2O`: the TGI is over 50 µM in experiment [1]; over 50 µM in experiment [2]; 0.00566 µM in experiment [3]; over 50 µM in [4]; over 18.5 µM in [5]; over 50 µM in [10]. Besides, the results for the TGI in experiment [7], in [8] and in experiment [9] were over 50 µM, over 22.1 µM and over 50 µM, respectively.
As to `C=C(C)C(=O)OC1C[C@H](COC(C)=O)C2CC=C(CO)C2C2OC(=O)C(=C)[C@H]12` (stereo partly drawn), the TGI was over 100 µM in experiment [1]; over 100 µM in [2]; 76 µM in experiment [3]; 65.2 µM in experiment [5]; over 100 µM in experiment [10]; over 100 µM in experiment [6]. For the same compound, the TGI in experiment [7] was over 100 µM; in experiment [8], over 100 µM; in experiment [9] it was 40 µM.
`CC1(C)OC2OC(COC(=O)c3ccc(C#N)cc3)C3OC(C)(C)OC3C2O1` (stereo not drawn): the TGI in experiment [1], in [2], in [5], in experiment [10], in [6] and in [7] was over 75 µM in each case. The TGI in experiment [8] and in experiment [9] was over 75 µM each time.
Regarding `CC(=O)n1nc(-c2ccc3ccccc3c2)nc1C`, the TGI in experiment [1], in [3], in [5], in [10], in [6] and in experiment [8] was over 100 µM throughout. This compound also showed a TGI in [9] of over 100 µM.
For `CCN(CC)CCN1C(=O)C(=O)N(c2cccc3ccccc23)C1=O`, the TGI in experiment [2], in [3], in experiment [5], in [10], in [6] and in experiment [7] was over 10 µM in each case. Further, the TGI in [8] and in experiment [9] was over 10 µM each time.
As for `CCOc1cc(-c2nc3cc(F)ccc3s2)ccc1O`, the TGI in [1] amounted to 30.2 µM; in experiment [2], 41.3 µM; in experiment [10] it was 23 µM; in [6], 31.7 µM; in experiment [7], 33.8 µM; in experiment [8], 32.2 µM. In [9], this compound had a TGI of 40.7 µM.
`COc1ccc2c3c1OC1C(OC)(OC)CC4(C=C2)CN(C)CCC314` (stereo not drawn): the TGI in experiment [1], in experiment [2], in [3], in experiment [10], in experiment [6] and in [7] was over 100 µM throughout. Moreover, the TGI in experiment [8] and in experiment [9] was over 100 µM in each case.
